Reference: ChEMBL document CHEMBL1128032, “Synthesis and antiviral activity of amino acid esters of ribavirin” (1994)

Legend:
Influenza A virus [1] = assay: Antiviral activity against influenza virus A strain H7N7 (FPV) was determined as zone of cytotoxicity; format: functional, unidentified influenza virus
Influenza A virus [2] = assay: Antiviral activity against influenza virus A strain H7N7 (FPV) was determined as zone of plaque inhibition; format: functional, unidentified influenza virus
Influenza A virus [3] = assay: Antiviral effect against influenza virus A strain H7N7 (FPV) by the difference between zone of plaque inhibition and zone of cytotoxicity; (11-12 mm); format: functional, unidentified influenza virus
Suid alphaherpesvirus 1 [4] = assay: Antiviral activity against pseudorabies virus strain Anjeszky A2 was determined as zone of cytotoxicity; format: functional; design: unit not given here
Suid alphaherpesvirus 1 [5] = assay: Antiviral activity against pseudorabies virus strain Anjeszky A2 was determined as zone of plaque inhibition; format: functional; design: unit not given here
Suid alphaherpesvirus 1 [6] = assay: Antiviral effect against pseudorabies virus strain Anjeszky A2 by the difference between zone of plaque inhibition and zone of cytotoxicity; format: functional
Newcastle disease virus [7] = assay: Antiviral activity against newcastle disease virus strain Russeff (NDV) was determined as zone of cytotoxicity; format: functional, avian paramyxovirus 1; design: unit not given here
Newcastle disease virus [8] = assay: Antiviral activity against newcastle disease virus strain Russeff (NDV) was determined as zone of plaque inhibition; format: functional, avian paramyxovirus 1
Newcastle disease virus [9] = assay: Antiviral effect against newcastle disease virus strain Russeff (NDV) by the difference between zone of plaque inhibition and zone of cytotoxicity; format: functional, avian paramyxovirus 1
Influenza A virus [10] = assay: Antiviral effect against influenza virus A strain H7N7 (FPV) by the difference between zone of plaque inhibition and zone of cytotoxicity; format: functional, unidentified influenza virus
Influenza A virus [11] = assay: Antiviral effect against influenza virus A strain H7N7 (FPV) by the difference between zone of plaque inhibition and zone of cytotoxicity; (6-10 mm); format: functional, unidentified influenza virus
Newcastle disease virus [12] = assay: Antiviral effect against newcastle disease virus strain Russeff (NDV) by the difference between zone of plaque inhibition and zone of cytotoxicity; (11-12 mm); format: functional, avian paramyxovirus 1
Newcastle disease virus [13] = assay: Antiviral effect against newcastle disease virus strain Russeff (NDV) by the difference between zone of plaque inhibition and zone of cytotoxicity; (6-10 mm); format: functional, avian paramyxovirus 1
Suid alphaherpesvirus 1 [14] = assay: Antiviral effect against pseudorabies virus strain Anjeszky A2 by the difference between zone of plaque inhibition and zone of cytotoxicity; (6-10 mm); format: functional
Suid alphaherpesvirus 1 [15] = assay: Antiviral effect against pseudorabies virus strain Anjeszky A2 by the difference between zone of plaque inhibition and zone of cytotoxicity; (21-40 mm); format: functional
Newcastle disease virus [16] = assay: Antiviral effect against newcastle disease virus strain Russeff (NDV) by the difference between zone of plaque inhibition and zone of cytotoxicity; (21-40 mm); format: functional, avian paramyxovirus 1

## CC(C)(C)OC(=O)N[C@@H](Cc1ccccc1)C(=O)OCC1OC(n2cnc(C(N)=O)n2)C2OC(C)(C)OC12 (stereo partly drawn)
Influenza A virus [1]
  Activity: 9.2 mm
Influenza A virus [2]
  Activity: 19.3 mm
Influenza A virus [3]
  Activity: 12 mM
Suid alphaherpesvirus 1 [4]
  Activity: 16.5
Suid alphaherpesvirus 1 [5]
  Activity: 0
Suid alphaherpesvirus 1 [6]
  Activity: 5 mm
Newcastle disease virus [7]
  Activity: 16.5
Newcastle disease virus [8]
  Activity: 0 mm
Newcastle disease virus [9]
  Activity: 5 mM

## CC(C)(C)OC(=O)N[C@@H](Cc1c[nH]c2ccccc12)C(=O)OCC1OC(n2cnc(C(N)=O)n2)C2OC(C)(C)OC12 (stereo partly drawn)
Influenza A virus [1]
  Activity: 10.7 mm
Influenza A virus [2]
  Activity: 15.7 mm
Influenza A virus [10]
  Activity: 5 mM
Suid alphaherpesvirus 1 [4]
  Activity: 9
Suid alphaherpesvirus 1 [5]
  Activity: 0
Suid alphaherpesvirus 1 [6]
  Activity: 5 mm
Newcastle disease virus [7]
  Activity: 10.7
Newcastle disease virus [8]
  Activity: 0 mm
Newcastle disease virus [9]
  Activity: 5 mM

## CC(C)C[C@H](NC(=O)OC(C)(C)C)C(=O)OCC1OC(n2cnc(C(N)=O)n2)C2OC(C)(C)OC12 (stereo partly drawn)
Influenza A virus [1]
  Activity: 8.3 mm
Influenza A virus [2]
  Activity: 16.8 mm
Influenza A virus [11]
  Activity: 10 mM
Suid alphaherpesvirus 1 [4]
  Activity: 16
Suid alphaherpesvirus 1 [5]
  Activity: 18
Suid alphaherpesvirus 1 [6]
  Activity: 5 mm
Newcastle disease virus [7]
  Activity: 16
Newcastle disease virus [8]
  Activity: 28 mm
Newcastle disease virus [12]
  Activity: 12 mM

## CC(C)(C)OC(=O)N1CCC[C@H]1C(=O)OCC1OC(n2cnc(C(N)=O)n2)C2OC(C)(C)OC12 (stereo partly drawn)
Influenza A virus [1]
  Activity: 14 mm
Influenza A virus [2]
  Activity: 22.8 mm
Influenza A virus [11]
  Activity: 10 mM
Suid alphaherpesvirus 1 [4]
  Activity: 10
Suid alphaherpesvirus 1 [5]
  Activity: 0
Suid alphaherpesvirus 1 [6]
  Activity: 5 mm
Newcastle disease virus [7]
  Activity: 8.7
Newcastle disease virus [8]
  Activity: 16.5 mm
Newcastle disease virus [13]
  Activity: 10 mM

## CC(C)(C)OC(=O)NCC(=O)OC[C@H]1O[C@@H](n2cnc(C(N)=O)n2)[C@@H]2OC(C)(C)O[C@@H]21
Influenza A virus [1]
  Activity: 10.2 mm
Influenza A virus [2]
  Activity: 0 mm
Influenza A virus [10]
  Activity: 5 mM
Suid alphaherpesvirus 1 [4]
  Activity: 15
Suid alphaherpesvirus 1 [5]
  Activity: 23.5
Newcastle disease virus [7]
  Activity: 19
Newcastle disease virus [8]
  Activity: 31.5 mm
Newcastle disease virus [12]
  Activity: 12 mM
Suid alphaherpesvirus 1 [14]
  Activity: 10 mM

## NC(=O)c1ncn([C@@H]2O[C@H](CO)[C@@H](O)[C@H]2O)n1 [RIBAVIRIN]
Influenza A virus [3]
  Activity: 12 mM
Suid alphaherpesvirus 1 [15]
  Activity: 40 mM
Newcastle disease virus [16]
  Activity: 40 mM
